According to patent publication US20230226003A1, “NATURAL ANTIBACTERIAL AND ANTIVIRAL BIOLOGICAL COMPOSITIONS, COMPOUNDS, METHOD FOR OBTAINING SAME, AND USE THEREOF” (BEEOTEC HOLDING S/A, priority 2020, published 2023):

System: microorganisms on surfaces of a surgical center
Experiment: Efficiency of disinfectants: reduction of microbial counts on surgical center surfaces
Conditions: post- vs pre-disinfection; same letter = no significant difference (p < 0.05)

SMILES	Reduction of counts microbial (%)
OCl [0.5% sodium hypochlorite, sodium hypochlorite]	61 b %
CC(C)O [70% isopropanol, isopropyl alcohol]	87 a %
